# In patent publication US20240368150A1 (Hoffmann-La Roche Inc., priority 2021, published 2024):
# Read-outs that look alike come from different tables or passages of the source.
# Legend:
# primary human T-cells [1] = assay: Proliferation assay after 5 days (CellTiter-Glo, CD3 stimulation; PBS counter screen); format: cell-based; conditions: Homo sapiens, T-cell, 120 h, CD3 stimulation; for Emax: 5 days, normalized to reference compound A1 as stimulator control = 100%, DMSO neutral control, read-out: Emax proliferation (% activation); for EC50: primary human T-cells, CellTiter-Glo after 5 days, EC50 of fitted sigmoidal curve, read-out: Tcell Proliferation CD3 EC50
# Procedure, shortened: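 After compound addition to medium-only plates, cells are cultured 5 days, equilibrated to room temperature, mixed with an equal volume of CellTiter-Glo 2.0 and rocked 15 min before luminescence is read. Signal reflects ATP content, taken as proportional to cell number.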
# primary human T-cells [2] = system: primary human T-cells
SMILES,Emax (primary human T-cells [1]),EC50 (primary human T-cells [1]),EC50 (primary human T-cells [2])
"N[C@H]1CS(=O)(=O)c2cc(F)c(-c3nnc(CC(F)(F)F)o3)cc2N(Cc2ccc(Cl)cc2)C1=O [Example 68, (3R)-3-Amino-5-[(4-chlorophenyl)methyl]-8-fluoro-1,1-dioxo-7-[5-(2,2,2-trifluoroethyl)-1,3,4-oxadiazol-2-yl]-2,3-dihydro-1λ^6,5-benzothiazepin-4-one]",91%,5.14 µM,> 20 µM
CC(C)(N)c1nnc(-c2cc3c(cc2F)S(=O)(=O)C[C@H](N)C(=O)N3Cc2ccc(Cl)cc2)o1 [Example 69],171%,4.77 µM,1.67 µM
"CC(C)(F)c1nnc(-c2cc3c(cc2F)S(=O)(=O)C[C@H](N)C(=O)N3Cc2ccc(Cl)cc2)o1 [Example 70, (3R)-3-Amino-5-[(4-chlorophenyl)methyl]-8-fluoro-7-[5-(1-fluoro-1-methyl-ethyl)-1,3,4-oxadiazol-2-yl]-1,1-dioxo-2,3-dihydro-1λ^6,5-benzothiazepin-4-one]",255%,0.213 µM,0.0746 µM
"N[C@H]1CS(=O)(=O)c2cc(F)c(-c3nnc(CC(F)F)o3)cc2N(Cc2ccc(Cl)cc2)C1=O [Example 71, (3R)-3-Amino-5-[(4-chlorophenyl)methyl]-7-[5-(2,2-difluoroethyl)-1,3,4-oxadiazol-2-yl]-8-fluoro-1,1-dioxo-2,3-dihydro-1λ^6,5-benzothiazepin-4-one]",71%,< 0.162 µM,> 20 µM
"N[C@H]1CS(=O)(=O)c2cc(F)c(-c3nnc(C4CCC(F)(F)CC4)o3)cc2N(Cc2ccc(Cl)cc2)C1=O [Example 73, (3R)-3-Amino-5-[(4-chlorophenyl)methyl]-7-[5-(4,4-difluorocyclohexyl)-1,3,4-oxadiazol-2-yl]-8-fluoro-1,1-dioxo-2,3-dihydro-1λ^6,5-benzothiazepin-4-one]",194%,0.126 µM,0.0502 µM
"N[C@H]1CS(=O)(=O)c2cc(F)c(-c3nnc(C4CCC(F)(F)C4)o3)cc2N(Cc2ccc(Cl)cc2)C1=O (stereo partly drawn) [Example 75, (3R)-3-Amino-5-[(4-chlorophenyl)methyl]-7-[5-(3,3-difluorocyclopentyl)-1,3,4-oxadiazol-2-yl]-8-fluoro-1,1-dioxo-2,3-dihydro-1λ^6,5-benzothiazepin-4-one]",161%,0.0351 µM,0.114 µM
"N[C@H]1CS(=O)(=O)c2cc(F)c(-c3nnc(C4CCCC4(F)F)o3)cc2N(Cc2ccc(Cl)cc2)C1=O (stereo partly drawn) [Example 76, (3R)-3-Amino-5-[(4-chlorophenyl)methyl]-7-[5-(2,2-difluorocyclopentyl)-1,3,4-oxadiazol-2-yl]-8-fluoro-1,1-dioxo-2,3-dihydro-1λ^6,5-benzothiazepin-4-one]",173%,1.08 µM,0.749 µM
"N[C@H]1CS(=O)(=O)c2cc(F)c(-c3nnc(CC4CC(F)(F)C4)o3)cc2N(Cc2ccc(Cl)cc2)C1=O [Example 77, (3R)-3-Amino-5-[(4-chlorophenyl)methyl]-7-[5-[(3,3-difluorocyclobutyl)methyl]-1,3,4-oxadiazol-2-yl]-8-fluoro-1,1-dioxo-2,3-dihydro-1λ^6,5-benzothiazepin-4-one]",183%,–,0.341 µM
"N[C@H]1CS(=O)(=O)c2cc(F)c(-c3nnc(CC4CCOCC4)o3)cc2N(Cc2ccc(Cl)cc2)C1=O [Example 78, (3R)-3-Amino-5-[(4-chlorophenyl)methyl]-8-fluoro-1,1-dioxo-7-[5-(tetrahydropyran-4-ylmethyl)-1,3,4-oxadiazol-2-yl]-2,3-dihydro-1λ^6,5-benzothiazepin-4-one]",86%,1.11 µM,2.35 µM
"N[C@H]1CS(=O)(=O)c2cc(F)c(-c3nnc(C4CC(F)(F)C4)o3)cc2N(Cc2ccc(Cl)cc2)C1=O [Example 80, (3R)-3-Amino-5-[(4-chlorophenyl)methyl]-7-[5-(3,3-difluorocyclobutyl)-1,3,4-oxadiazol-2-yl]-8-fluoro-1,1-dioxo-2,3-dihydro-1λ^6,5-benzothiazepin-4-one]",278%,0.0815 µM,0.176 µM
"N[C@H]1CS(=O)(=O)c2cc(F)c(-c3nnc(C4CCC4(F)F)o3)cc2N(Cc2ccc(Cl)cc2)C1=O (stereo partly drawn) [Example 81, (3R)-3-Amino-5-[(4-chlorophenyl)methyl]-7-[5-(2,2-difluorocyclobutyl)-1,3,4-oxadiazol-2-yl]-8-fluoro-1,1-dioxo-2,3-dihydro-1λ^6,5-benzothiazepin-4-one]",185%,0.521 µM,1.27 µM
"N[C@H]1CS(=O)(=O)c2cc(F)c(-c3nnc(C4CCOCC4)o3)cc2N(Cc2ccc(Cl)cc2)C1=O [Example 82, (3R)-3-Amino-5-[(4-chlorophenyl)methyl]-8-fluoro-1,1-dioxo-7-(5-tetrahydropyran-4-yl-1,3,4-oxadiazol-2-yl)-2,3-dihydro-1λ^6,5-benzothiazepin-4-one]",148%,0.728 µM,0.631 µM
"N[C@H]1CS(=O)(=O)c2cc(F)c(-c3nnc(CCF)o3)cc2N(Cc2ccc(Cl)cc2)C1=O [Example 83, (3R)-3-Amino-5-[(4-chlorophenyl)methyl]-8-fluoro-7-[5-(2-fluoroethyl)-1,3,4-oxadiazol-2-yl]-1,1-dioxo-2,3-dihydro-1λ^6,5-benzothiazepin-4-one]",27%,> 20 µM,0.47 µM
"CC(C)c1nnc(-c2cc3c(cc2F)S(=O)(=O)C[C@H](N)C(=O)N3Cc2ccc(Cl)cc2)o1 [Example 84, (3R)-3-Amino-5-[(4-chlorophenyl)methyl]-8-fluoro-7-(5-isopropyl-1,3,4-oxadiazol-2-yl)-1,1-dioxo-2,3-dihydro-1λ^6,5-benzothiazepin-4-one]",191%,0.227 µM,0.451 µM
"N[C@H]1CS(=O)(=O)c2cc(F)c(-c3nnc(C4CC4)o3)cc2N(Cc2ccc(Cl)cc2)C1=O [Example 85, (3R)-3-Amino-5-[(4-chlorophenyl)methyl]-7-(5-cyclopropyl-1,3,4-oxadiazol-2-yl)-8-fluoro-1,1-dioxo-2,3-dihydro-1λ^6,5-benzothiazepin-4-one]",100%,0.237 µM,0.47 µM
"CN(C)C(=O)c1nnc(-c2cc3c(cc2F)S(=O)(=O)C[C@H](N)C(=O)N3Cc2ccc(Cl)cc2)o1 [Example 87, N,N-dimethyl-5-[(3R)-3-amino-5-[(4-chlorophenyl)methyl]-8-fluoro-1,1,4-trioxo-2,3-dihydro-1λ^6,5-benzothiazepin-7-yl]-1,3,4-oxadiazole-2-carboxamide]",82%,2.74 µM,1.53 µM
"CC1(c2nnc(-c3cc4c(cc3F)S(=O)(=O)C[C@H](N)C(=O)N4Cc3ccc(Cl)cc3)o2)CCCO1 (stereo partly drawn) [Example 88, (3R)-3-amino-5-[(4-chlorophenyl)methyl]-8-fluoro-7-[5-(2-methyltetrahydrofuran-2-yl)-1,3,4-oxadiazol-2-yl]-1,1-dioxo-2,3-dihydro-1λ^6,5-benzothiazepin-4-o]",97%,0.242 µM,0.689 µM
"CC(C)OCc1nnc(-c2cc3c(cc2F)S(=O)(=O)C[C@H](N)C(=O)N3Cc2ccc(Cl)cc2)o1 [Example 89, (3R)-3-amino-5-[(4-chlorophenyl)methyl]-8-fluoro-7-[5-(isopropoxymethyl)-1,3,4-oxadiazol-2-yl]-1,1-dioxo-2,3-dihydro-1λ^6,5-benzothiazepin-4-one]",104%,0.615 µM,0.117 µM
"CC(C)(C)NC(=O)c1nnc(-c2cc3c(cc2F)S(=O)(=O)C[C@H](N)C(=O)N3Cc2ccc(Cl)cc2)o1 [Example 90, N-tert-butyl-5-[(3R)-3-amino-5-[(4-chlorophenyl)methyl]-8-fluoro-1,1,4-trioxo-2,3-dihydro-1λ^6,5-benzothiazepin-7-yl]-1,3,4-oxadiazole-2-carboxamide]",96%,2.34 µM,0.819 µM
"CC1(c2nnc(-c3cc4c(cc3F)S(=O)(=O)C[C@H](N)C(=O)N4Cc3ccc(Cl)cc3)o2)CCOCC1 [Example 92, (3R)-3-amino-5-[(4-chlorophenyl)methyl]-8-fluoro-7-[5-(4-methyltetrahydropyran-4-yl)-1,3,4-oxadiazol-2-yl]-1,1-dioxo-2,3-dihydro-1λ^6,5-benzothiazepin-4-one]",141%,0.196 µM,0.145 µM
"N[C@H]1CS(=O)(=O)c2cc(F)c(-c3nnc(C(=O)N4CCCC(F)(F)C4)o3)cc2N(Cc2ccc(Cl)cc2)C1=O [Example 93, (3R)-3-amino-5-[(4-chlorophenyl)methyl]-7-[5-(3,3-difluoropiperidine-1-carbonyl)-1,3,4-oxadiazol-2-yl]-8-fluoro-1,1-dioxo-2,3-dihydro-1λ^6,5-benzothiazepin-4-one]",100%,1.75 µM,0.66 µM
"N[C@H]1CS(=O)(=O)c2cc(F)c(-c3nnc(C4CC5(C4)CC(F)(F)C5)o3)cc2N(Cc2ccc(Cl)cc2)C1=O [Example 94, (3R)-3-amino-5-[(4-chlorophenyl)methyl]-7-[5-(2,2-difluorospiro[3.3]heptan-6-yl)-1,3,4-oxadiazol-2-yl]-8-fluoro-1,1-dioxo-2,3-dihydro-1λ^6,5-benzothiazepin-4-one]",85%,0.0181 µM,0.161 µM
"CS(=O)(=O)CCc1nnc(-c2cc3c(cc2F)S(=O)(=O)C[C@H](N)C(=O)N3Cc2ccc(Cl)cc2)o1 [Example 95, (3R)-3-amino-5-[(4-chlorophenyl)methyl]-8-fluoro-7-[5-(2-methylsulfonylethyl)-1,3,4-oxadiazol-2-yl]-1,1-dioxo-2,3-dihydro-1λ^6,5-benzothiazepin-4-one]",67%,6.16 µM,5.36 µM
